Test results from ChEMBL document CHEMBL1201862, “PubChem BioAssay data set” (2004).
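A five-concentration, 48-hour dose response in 96-well plates underlies each endpoint, interpolated linearly between surrounding concentrations. GI50 marks 50% less growth.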 Calls of active or inactive are those of the source. No stated cut-off is given here; in the data, active = GI50 up to about 1.1 µM and inactive = higher.

Tests used:
Assay in all cases: growth of human tumour cells (NCI), 48 h
HCT-116 = test system: HCT-116
SK-MEL-2 = test system: SK-MEL-2
NCI-H23 = test system: NCI-H23
SF-268 = test system: SF-268
M14 = test system: M14
KM12 = test system: KM12
SF-539 = test system: SF-539
SNB-19 = test system: SNB-19
RPMI-8226 = test system: RPMI-8226
SR = test system: SR
NCI-H460 = test system: NCI-H460
UO-31 = test system: UO-31
COLO 205 = test system: COLO 205
OVCAR-3 = test system: OVCAR-3
HOP-92 = test system: HOP-92
UACC-257 = test system: UACC-257
HCT-15 = test system: HCT-15
IGROV-1 = test system: IGROV-1
SK-OV-3 = test system: SK-OV-3
Malme-3M = test system: Malme-3M

Structure (SMILES)	GI50 (HCT-116)	GI50 (SK-MEL-2)	GI50 (NCI-H23)	GI50 (SF-268)	GI50 (M14)	GI50 (KM12)	GI50 (SF-539)	GI50 (SNB-19)	GI50 (RPMI-8226)	GI50 (SR)	GI50 (NCI-H460)	GI50 (UO-31)	GI50 (COLO 205)	GI50 (OVCAR-3)	GI50 (HOP-92)	GI50 (UACC-257)	GI50 (HCT-15)	GI50 (IGROV-1)	GI50 (SK-OV-3)	GI50 (Malme-3M)
NC(CCCCCCCCCCP(=O)(O)O)C(=O)O (stereo not drawn)	> 100 µM (inactive)	> 100 µM (inactive)	> 100 µM (inactive)	> 10 µM (inactive)	> 100 µM (inactive)	> 100 µM (inactive)	> 100 µM (inactive)	> 100 µM (inactive)	> 100 µM (inactive)	> 100 µM (inactive)	> 100 µM (inactive)	> 100 µM (inactive)	> 100 µM (inactive)	> 100 µM (inactive)	> 100 µM (inactive)	> 100 µM (inactive)	> 100 µM	> 100 µM (inactive)	> 100 µM (inactive)	–
O=[N+]([O-])c1ccccc1C1SCc2nc3ccccc3n21 (stereo not drawn)	–	> 100 µM (inactive)	54.1 µM (inactive)	> 100 µM (inactive)	–	> 100 µM (inactive)	> 100 µM (inactive)	> 100 µM (inactive)	–	85.3 µM (inactive)	78.9 µM (inactive)	31.6 µM (inactive)	–	–	48 µM (inactive)	46.7 µM (inactive)	–	36.9 µM (inactive)	> 100 µM (inactive)	22.1 µM (inactive)
COC(=O)C1=C(C)N2CCOC2(C)C(C(=O)OC)C1c1ccc[nH]1 (stereo not drawn)	> 100 µM (inactive)	> 100 µM (inactive)	> 100 µM (inactive)	> 100 µM (inactive)	> 100 µM (inactive)	> 100 µM (inactive)	> 100 µM (inactive)	> 100 µM (inactive)	> 100 µM (inactive)	> 100 µM (inactive)	> 100 µM (inactive)	> 100 µM (inactive)	> 100 µM (inactive)	> 100 µM (inactive)	> 100 µM (inactive)	> 100 µM (inactive)	–	> 100 µM (inactive)	–	–
O=C1OC(c2ccccc2)=N/C1=C\c1ccc(Oc2ccc(Cl)c(Cl)c2)cc1	33.2 µM (inactive)	50.5 µM (inactive)	35.4 µM (inactive)	23.1 µM (inactive)	49.5 µM (inactive)	50 µM (inactive)	24.2 µM (inactive)	35.5 µM (inactive)	–	21.7 µM (inactive)	71.4 µM (inactive)	21.8 µM (inactive)	> 100 µM (inactive)	–	55 µM (inactive)	> 100 µM (inactive)	43.2 µM	> 100 µM (inactive)	–	26 µM (inactive)
CN1CCN(c2cc(-c3cc4ccccc4o3)oc(=O)c2C#N)CC1	77.1 µM (inactive)	> 100 µM (inactive)	> 100 µM (inactive)	51.2 µM (inactive)	> 100 µM (inactive)	99.3 µM (inactive)	98.4 µM (inactive)	> 100 µM (inactive)	75.5 µM (inactive)	36.8 µM (inactive)	58.1 µM (inactive)	> 100 µM (inactive)	66.5 µM (inactive)	–	–	> 100 µM (inactive)	99.8 µM	88.9 µM (inactive)	–	> 100 µM (inactive)
CC(C)(C)[Si](C)(C)OCC1OC(n2cnc3c(N)ncnc32)CC1OS(C)(=O)=O (stereo not drawn)	72.1 µM (inactive)	> 100 µM (inactive)	51.1 µM (inactive)	–	21.7 µM (inactive)	> 100 µM (inactive)	–	> 100 µM (inactive)	> 100 µM (inactive)	> 100 µM (inactive)	> 100 µM (inactive)	51.4 µM (inactive)	> 100 µM (inactive)	27.4 µM (inactive)	0.506 µM (active)	> 100 µM (inactive)	> 100 µM	> 100 µM (inactive)	> 100 µM (inactive)	> 100 µM (inactive)
COC(=O)c1cc(NC2OCC(OC(C)=O)C(OC(C)=O)C2OC(C)=O)nc(SC)c1C(=O)OC (stereo not drawn)	> 100 µM (inactive)	> 100 µM (inactive)	> 100 µM (inactive)	> 100 µM (inactive)	> 100 µM (inactive)	> 100 µM (inactive)	> 100 µM (inactive)	> 100 µM (inactive)	> 100 µM (inactive)	> 100 µM (inactive)	> 100 µM (inactive)	> 100 µM (inactive)	> 100 µM (inactive)	> 100 µM (inactive)	> 100 µM (inactive)	> 100 µM (inactive)	> 100 µM	> 100 µM (inactive)	–	–
Cc1cc(S(=O)(=O)Nc2nc(Nc3ccccc3)n[nH]2)c(SSc2cc(Cl)c(C)cc2S(=O)(=O)Nc2nc(Nc3ccccc3)n[nH]2)cc1Cl	> 100 µM (inactive)	–	> 100 µM (inactive)	86.7 µM (inactive)	> 100 µM (inactive)	> 100 µM (inactive)	> 10 µM (inactive)	94.8 µM (inactive)	> 100 µM (inactive)	40.2 µM (inactive)	> 100 µM (inactive)	> 100 µM (inactive)	> 100 µM (inactive)	> 100 µM (inactive)	–	> 100 µM (inactive)	> 100 µM	> 100 µM (inactive)	> 100 µM (inactive)	46.8 µM (inactive)
COC(=S)OC1CC(n2cnc3c(N)ncnc32)OC1CO[Si](C)(C)C(C)(C)C (stereo not drawn)	16 µM (inactive)	22.6 µM (inactive)	14 µM (inactive)	–	16.4 µM (inactive)	23.7 µM (inactive)	–	33 µM (inactive)	19 µM (inactive)	17.5 µM (inactive)	20.3 µM (inactive)	16.6 µM (inactive)	17.7 µM (inactive)	15.3 µM (inactive)	31 µM (inactive)	21.3 µM (inactive)	16.8 µM	17.6 µM (inactive)	24 µM (inactive)	31.5 µM (inactive)
COC(=O)[C@@H]1C=C[C@H](NC(C)=O)C1	> 100 µM (inactive)	> 100 µM (inactive)	> 100 µM (inactive)	–	> 100 µM (inactive)	> 100 µM (inactive)	–	> 100 µM (inactive)	> 100 µM (inactive)	> 100 µM (inactive)	> 100 µM (inactive)	> 100 µM (inactive)	> 100 µM (inactive)	> 100 µM (inactive)	> 100 µM (inactive)	> 100 µM (inactive)	> 100 µM	> 100 µM (inactive)	> 100 µM (inactive)	> 100 µM (inactive)
COC(=O)c1ccccc1/N=C(/NC1CCCCCC1)NS(=O)(=O)c1ccc(C)cc1	> 100 µM (inactive)	> 100 µM (inactive)	> 100 µM (inactive)	> 100 µM (inactive)	> 100 µM (inactive)	> 100 µM (inactive)	> 100 µM (inactive)	> 100 µM (inactive)	> 100 µM (inactive)	> 100 µM (inactive)	> 100 µM (inactive)	> 100 µM (inactive)	> 100 µM (inactive)	> 100 µM (inactive)	89.7 µM (inactive)	> 100 µM (inactive)	> 100 µM	> 100 µM (inactive)	> 100 µM (inactive)	–
